# Measurements from US4962112A, “7-(2-methyl-4-aminopyrrolidinyl)naphthryidine and quinoline compounds” (Abbott Laboratories, priority 1988, dated 1990).
# Legend:
# S. aureus = assay: In vitro antibacterial activity, agar dilution MIC; assay type: cell-based; details: Staphylococcus aureus, 18 h
# Method: (§1) The in vitro antibacterial activity of the test compound was determined by conventional agar dilution procedures. The organisms were grown overnight in brain-heart infusion (BHI) broth (Difco 0037-01-6) at 36° C. Twofold dilutions of the stock solution ([…]) of the test compound were made in BHI agar obtain a test concentration ranging from […]. The plate was inoculated with approximately 10^4 organisms. It was then incubated at 36° C. for 18 h. the minimal inhibitory concentration was the lowest concentration of the test compound that yielded no visible growth on the plate.
# EN[…] = assay: In vitro antibacterial activity, agar dilution MIC; assay type: cell-based; details: Enterococcus faecium, ATCC8043, 18 h; EN[…] ATCC 8043
# Method: as §1
# E. coli = assay: In vitro antibacterial activity, agar dilution MIC; assay type: cell-based; details: Escherichia coli, 18 h
# Method: as §1
# M[…] = assay: In vitro antibacterial activity, agar dilution MIC; assay type: cell-based; details: Micrococcus luteus
# Method: as §1
# PSEUDOMONAS CEPACIA = assay: In vitro antibacterial activity, agar dilution MIC; assay type: cell-based; details: Burkholderia cepacia, 18 h; PSEUDOMONAS CEPACIA 296I
# S. agalactiae = assay: In vitro antibacterial activity, agar dilution MIC; assay type: cell-based; details: Streptococcus agalactiae, 18 h; STR[…] 508 (Table 2)
# K. pneumoniae = assay: In vitro antibacterial activity, agar dilution MIC; assay type: cell-based, Klebsiella pneumoniae; details: ATCC8045, 18 h; KLEBSIELLA PNEUMONIAE ATCC 8045; read-out: MIC
# P. aeruginosa = assay: In vitro antibacterial activity, agar dilution MIC; assay type: cell-based; details: Pseudomonas aeruginosa, 18 h
# PROVIDENCIA STUARTII = assay: In vitro antibacterial activity, agar dilution MIC; assay type: cell-based; details: 18 h
# [1] = Aqueous solubility in Ringer's buffer at pH 7.5 (HPLC); assay type: physicochemical
# Method: A known excess weight of the compound was shaken overnight with a known volume of Ringer's buffer (bicarbonate buffer containing sodium, potassium, calcium and magnesium ions, initially adjusted to pH 7.5). The contents were filtered, and the clear filtrate was analyzed after appropriate dilution using HPLC (UV absorbance detection).
# ACINETOBACTER SP = assay: In vitro antibacterial activity, agar dilution MIC; assay type: cell-based; details: 18 h; ACINETOBACTER SP CMX 669
# STREPTOCOCCUS BOVIS = assay: In vitro antibacterial activity, agar dilution MIC; assay type: cell-based; details: Streptococcus equinus, 18 h; STREPTOCOCCUS BOVIS A5196
# [2] = test system: STAPHYLOCOCCUS EPIDERMIDIS; assay: In vitro antibacterial activity, agar dilution MIC; assay type: cell-based; details: 18 h; STAPHYLOCOCCUS EPIDERMIDIS 3519
# [3] = Oral pharmacokinetics, blood level by disk agar diffusion bioassay; assay type: in vivo, Mice; details: for Blood Level of Compound: mice; for serum concentrations / blood levels (in words): versus analogs A and B at 100 mg/kg
# Method: Mice were administered the quantity of compound indicated orally, as a single dose. At the specified time intervals, blood was collected from groups of five mice. All samples were assayed by a disk agar diffusion bioassay procedure. Bacillus subtilis 6633 or Klebsiella pneumoniae 10032 were used as the assay organisms, and seek agar medium No. 1 (BBL Microbiology Systems; Cockeysville, MD) was the growth medium. The plates were incubated at 32° C for 18 h and read with an image analyzer (Optomax Inc.).
# S. pyogenes = assay: In vitro antibacterial activity, agar dilution MIC; assay type: cell-based; details: Streptococcus pyogenes, 18 h
# [4] = ATCC6538P, STAPHYLOCOCCUS AUREUS ATCC 6538P
# [5] = compared with 2-unsubstituted aminopyrrolidine analogs
# [6] = STREPTOCOCCUS PYOGENES 930 CONST
SMILES,MIC (S. aureus; STAPHYLOCOCCUS AUREUS 45) [µg/mL],MIC (S. aureus; STAPHYLOCOCCUS AUREUS 45RAR2) [µg/mL],MIC (S. aureus; STAPHYLOCOCCUS AUREUS A5177) [µg/mL],MIC (S. aureus; STAPHYLOCOCCUS AUREUS CMX 503A) [µg/mL],MIC (S. aureus; STAPHYLOCOCCUS AUREUS CMX 553) [µg/mL],MIC (S. aureus; STAPHYLOCOCCUS AUREUS CMX 6868) [µg/mL],MIC (S. aureus; [4]) [µg/mL],MIC (EN[…]) [µg/mL],MIC (E. coli; ESCHERICHIA COLI DC-2) [µg/mL],MIC (E. coli; ESCHERICHIA COLI H560) [µg/mL],MIC (E. coli; ESCHERICHIA COLI JUHL) [µg/mL],MIC (E. coli; ESCHERICHIA COLI KNK 437) [µg/mL],MIC (E. coli; ESCHERICHIA COLI SS) [µg/mL],"MIC (M[…]; ATCC4698, 18 h, M[…] ATCC 4698) [µg/mL]","MIC (M[…]; ATCC9341, 18 h, M[…] ATCC 9341) [µg/mL]",MIC (PSEUDOMONAS CEPACIA) [µg/mL],MIC (S. agalactiae) [µg/mL],MIC (K. pneumoniae) [µg/mL],MIC (P. aeruginosa; PSEUDOMONAS AERUGINOSA A5007) [µg/mL],MIC (P. aeruginosa; PSEUDOMONAS AERUGINOSA BMH10) [µg/mL],other results
C[C@H]1C[C@H](N)CN1c1cc2c(cc1F)c(=O)c(C(=O)O)cn2-c1ccc(F)cc1F [Example 6],0.1,0.1,0.2,0.1,0.1,0.05,0.02,0.1,0.2,0.2,0.05,0.2,≤ 0.002,0.1,0.2,12.5,0.1,0.02,3.1,0.78,"MIC (P. aeruginosa; PSEUDOMONAS AERUGINOSA K799/61): 0.02 µg/mL; MIC (P. aeruginosa; PSEUDOMONAS AERUGINOSA K799/WT): 0.39 µg/mL; MIC (PROVIDENCIA STUARTII): 1.56 µg/mL; AQUEOUS SOLUBILITY ([1]; at pH 7.5 in Ringer's buffer): 0.053 mg/mL; solubility properties (in words) [1, 5]: significantly improved aqueous solubility properties; MIC (ACINETOBACTER SP): 0.1 µg/mL; MIC (STREPTOCOCCUS BOVIS): 0.2 µg/mL; MIC [2]: 0.2 µg/mL; oral absorption properties (in words) [3, 5]: greatly improved oral absorption properties; Blood Level of Compound ([3]; oral 25 mg/kg, t = 0.5 h): 3700 ng/mL; Blood Level of Compound ([3]; oral 25 mg/kg, t = 1.0 h): 4300 ng/mL; Blood Level of Compound ([3]; oral 25 mg/kg, t = 2.0 h): 2800 ng/mL; Blood Level of Compound ([3]; oral 25 mg/kg, t = 3.0 h): 1100 ng/mL; Blood Level of Compound ([3]; oral 25 mg/kg, t = 6.0 h): 100 ng/mL; Blood Level of Compound ([3]; oral 25 mg/kg, t = 24.0 h): 0 ng/mL; serum concentrations / blood levels (in words) ([3]; oral 25 mg/kg): still achieve better blood; serum concentrations / blood levels (in words) ([3]; oral 25 mg/kg, listed as Compound 6): higher serum concentrations; MIC (S. pyogenes; [6]): 0.2 µg/mL; MIC (S. pyogenes; STREPTOCOCCUS PYOGENES EE561): 0.2 µg/mL"
"NC1CCN(c2cc3c(cc2F)c(=O)c(C(=O)O)cn3-c2ccc(F)cc2F)C1 (stereo not shown) [Example B, 7-(3-Amino-pyrrolidin-1-yl)-1-(2,4-difluorophenyl)-1,4-dihydro-6-fluoro--oxo-quinoline-3-carboxylic acid, reference compound]",0.1,0.1,0.05,0.05,0.05,0.05,0.02,0.2,0.2,0.02,0.02,0.2,0.002,0.78,0.39,6.2,0.2,0.01,0.2,0.1,"MIC (P. aeruginosa; PSEUDOMONAS AERUGINOSA K799/61): 0.05 µg/mL; MIC (P. aeruginosa; PSEUDOMONAS AERUGINOSA K799/WT): 0.2 µg/mL; MIC (PROVIDENCIA STUARTII): 1.56 µg/mL; solubility ([1]; at pH 7.5 in Ringer's buffer): 8 µg/mL; MIC (ACINETOBACTER SP): 0.05 µg/mL; MIC (STREPTOCOCCUS BOVIS): 0.39 µg/mL; MIC [2]: 0.1 µg/mL; Blood Level of Compound ([3]; oral 100 mg/kg, t = 1.0 h): 500 ng/mL; Blood Level of Compound ([3]; oral 100 mg/kg, t = 2.0 h): 700 ng/mL; Blood Level of Compound ([3]; oral 100 mg/kg, t = 3.0 h): 900 ng/mL; Blood Level of Compound ([3]; oral 100 mg/kg, t = 6.0 h): 700 ng/mL; Blood Level of Compound ([3]; oral 100 mg/kg, t = 24.0 h): 0 ng/mL; MIC (S. pyogenes; [6]): 0.1 µg/mL; MIC (S. pyogenes; STREPTOCOCCUS PYOGENES EE561): 0.2 µg/mL"
